Data from patent US10183914B2 (BAYER CROPSCIENCE AKTIENGESELLSCHAFT, priority 2014, dated 2019).
Like-named read-outs stand apart in the source and are kept apart here.

Key:
[1] = logp (HCOOH), physicochemical characterization
[2] = tested on: Triticum aestivum (spring); test: Pre-emergence herbicidal effect and crop plant compatibility; assay type: in vivo; details: 3 weeks
How it was run: (§1)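 Scoring was visual, 3 weeks after treatment, as percent damage relative to untreated controls. Before emergence, test compounds in WP or EC form had been applied in water at 600 to 800 L/ha with 0.2% wetting agent to the covering soil of seeds sown in sandy loam.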

Zea mays [3] = test: as above; assay type: in vivo; details: 3 weeks
How it was run: as §1

Setaria viridis [4] = test: Pre-emergence herbicidal effect; assay type: in vivo; details: 3 weeks
How it was run: as §1

Viola tricolor = test: Pre-emergence herbicidal effect; assay type: in vivo; details: 3 weeks
How it was run: as §1

Ipomoea purpurea [5] = test: Pre-emergence herbicidal effect; assay type: in vivo; details: 3 weeks
How it was run: as §1

Matricaria inodora = test: Pre-emergence herbicidal effect; assay type: in vivo; details: 3 weeks
How it was run: as §1

Amaranthus retroflexus = test: Pre-emergence herbicidal effect; assay type: in vivo; details: 3 weeks
How it was run: as §1

Stellaria media = test: Pre-emergence herbicidal effect; assay type: in vivo; details: 3 weeks
How it was run: as §1

Polygonum convolvulus = test: Pre-emergence herbicidal effect; assay type: in vivo; details: 3 weeks
How it was run: as §1

Lolium multiflorum [6] = test: Pre-emergence herbicidal effect; assay type: in vivo; details: 3 weeks
How it was run: as §1

Alopecurus myosuroides [7] = test: Pre-emergence herbicidal effect; assay type: in vivo; details: 3 weeks
How it was run: as §1

Echinochloa crus-galli [8] = test: Pre-emergence herbicidal effect; assay type: in vivo; details: 3 weeks
How it was run: as §1

Veronica persica = test: Pre-emergence herbicidal effect; assay type: in vivo; details: 3 weeks
How it was run: as §1

Avena fatua = test: Pre-emergence herbicidal effect; assay type: in vivo; details: 3 weeks
How it was run: as §1

Abutilon theophrasti = test: Pre-emergence herbicidal effect; assay type: in vivo; details: 3 weeks
How it was run: as §1

Lolium multiflorum [9] = test: Post-emergence herbicidal effect; assay type: in vivo; details: visual scoring after about 3 weeks
Protocol: (§2) Seeds of monocotyledonous and dicotyledonous weed and crop plants are laid out in sandy loam in wood-fiber pots, covered with soil and cultivated in a greenhouse under good growth conditions. 2 to 3 weeks after sowing, the test plants are treated at the one-leaf stage. The compounds of the invention, formulated in the form of wettable powders (WP) or as emulsion concentrates (EC), are then sprayed onto the green parts of the plants as aqueous suspension or emulsion at a water application rate equating to 600 to 800 L/ha with addition of 0.2% wetting agent. After the trial plants have been left to stand in a greenhouse under optimal growth conditions for about 3 weeks, the efficacy of the formulations is scored visually in comparison to untreated controls (herbicidal action in percent (%): 100% efficacy=the plants have died, 0% efficacy=like control plants).

Alopecurus myosuroides [10] = test: Post-emergence herbicidal effect; assay type: in vivo; details: 320 g/ha, visual scoring after about 3 weeks
Protocol: as §2

Oryza sativa [11] = test: Post-emergence herbicidal effect and crop plant compatibility; assay type: in vivo; details: visual scoring after about 3 weeks
How it was run: (§3)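 Visual scoring about 3 weeks after treatment rated damage against untreated plants, from 0% (like control) to 100% (dead). Treatment was a post-emergence foliar spray of WP/EC formulations in 600–800 L/ha water with 0.2% wetting agent. Plants were sprayed at the one-leaf stage, 2–3 weeks after sowing in sandy loam.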

[12] = tested on: Triticum aestivum (spring); test: as above; assay type: in vivo; details: visual scoring after about 3 weeks
How it was run: as §3

Zea mays [13] = test: as above; assay type: in vivo; details: visual scoring after about 3 weeks
How it was run: as §3

Setaria viridis [14] = test: Post-emergence herbicidal effect; assay type: in vivo; details: 320 g/ha (dose by row order of upper half), scoring after about 3 weeks
Protocol: as §2

Ipomoea purpurea [15] = test: Post-emergence herbicidal effect; assay type: in vivo; details: 320 g/ha (dose by row order of upper half), scoring after about 3 weeks
Protocol: as §2

Echinochloa crus-galli [16] = test: Post-emergence herbicidal effect; assay type: in vivo; details: visual scoring after about 3 weeks
Protocol: as §2

Oryza sativa [17] = test: Pre-emergence herbicidal effect and crop plant compatibility; assay type: in vivo; details: 3 weeks
How it was run: as §1

Cyperus esculentus = test: Pre-emergence herbicidal effect; assay type: in vivo; details: 3 weeks
How it was run: as §1

Compound | TRZAS herbicidal activity in percent ([2]; 80 g/ha) [%] | TRZAS herbicidal activity in percent ([2]; 320 g/ha) [%] | ZEAMX herbicidal activity in percent (Zea mays [3]; 80 g/ha) [%] | ZEAMX herbicidal activity in percent (Zea mays [3]; 320 g/ha) [%] | SETVI herbicidal activity in percent (Setaria viridis [4]; 320 g/ha) [%] | VIOTR herbicidal activity in percent (Viola tricolor; 320 g/ha) [%] | PHBPU herbicidal activity in percent (Ipomoea purpurea [5]; 320 g/ha) [%] | MATIN herbicidal activity in percent (Matricaria inodora; 80 g/ha) [%] | MATIN herbicidal activity in percent (Matricaria inodora; 320 g/ha) [%] | AMARE herbicidal activity in percent (Amaranthus retroflexus; 320 g/ha) [%] | STEME herbicidal activity in percent (Stellaria media; 80 g/ha) [%] | STEME herbicidal activity in percent (Stellaria media; 320 g/ha) [%] | POLCO herbicidal activity in percent (Polygonum convolvulus; 320 g/ha) [%] | LOLMU herbicidal activity in percent (Lolium multiflorum [6]; 320 g/ha) [%] | ALOMY herbicidal activity in percent (Alopecurus myosuroides [7]; 80 g/ha) [%] | ALOMY herbicidal activity in percent (Alopecurus myosuroides [7]; 320 g/ha) [%] | ECHCG herbicidal activity in percent (Echinochloa crus-galli [8]; 320 g/ha) [%] | VERPE herbicidal activity in percent (Veronica persica; 80 g/ha) [%] | VERPE herbicidal activity in percent (Veronica persica; 320 g/ha) [%] | logp (HCOOH) [1] | also measured
CC(=O)c1cnc(NC2CCOc3c(C)cccc32)nc1 (racemic) [1.7] | 0 | 0 | 0 | 20 | 90 | 100 | 100 | 90 | 100 | 100 | 80 | 100 | 90 | 100 | 80 | 100 | 90 | 100 | 100 |  | logp (HCOOH) ([1]; HCOOH): solid; m.p.: 167-168° C.; logp (HCOOH): 2.54; 1H-NMR (CDCl3, 400 MHZ, δ in
CC(=O)c1cnc(NC2CCOc3ccccc32)nc1C (centres unmarked) [1.83, 1-[2-(3,4-Dihydro-2H-chromen-4-ylamino)-4-methylpyrimidin-5-yl]ethanone] |  |  |  |  |  |  |  |  |  |  |  |  |  |  |  |  |  |  |  |  | chromatographic logP ([1]; HCOOH (formic acid)): 2.44; AVEFA herbicidal activity in percent (Avena fatua; 1280 g/ha): 90%; SETVI herbicidal activity in percent (Setaria viridis [4]; 1280 g/ha): 100%; VIOTR herbicidal activity in percent (Viola tricolor; 1280 g/ha): 100%; PHBPU herbicidal activity in percent (Ipomoea purpurea [5]; 1280 g/ha): 100%; MATIN herbicidal activity in percent (Matricaria inodora; 1280 g/ha): 100%; AMARE herbicidal activity in percent (Amaranthus retroflexus; 1280 g/ha): 100%; STEME herbicidal activity in percent (Stellaria media; 1280 g/ha): 100%; POLCO herbicidal activity in percent (Polygonum convolvulus; 1280 g/ha): 100%; LOLMU herbicidal activity in percent (Lolium multiflorum [6]; 1280 g/ha): 100%; ALOMY herbicidal activity in percent (Alopecurus myosuroides [7]; 1280 g/ha): 100%; ECHCG herbicidal activity in percent (Echinochloa crus-galli [8]; 1280 g/ha): 100%; VERPE herbicidal activity in percent (Veronica persica; 1280 g/ha): 100%; ABUTH herbicidal activity in percent (Abutilon theophrasti; 1280 g/ha): 100%
Cc1ccc2c(c1)[C@H](Nc1ncc3c(n1)CC(C(F)(F)F)CC3=O)[C@@H](C)C2 (some centres unmarked) [2.46] | 0 | 0 | 0 | 0 | 90 | 100 |  | 90 | 100 | 100 | 100 | 100 | 100 | 100 | 90 | 90 | 100 | 100 | 100 | oily; logp (HCOOH): 3.24; 1H-NMR (CDCl3, 400 MHZ, δ in ppm): 1.25 (t, 3H, CH3); | SETVI herbicidal activity in percent (Setaria viridis [4]; 80 g/ha): 90%; VIOTR herbicidal activity in percent (Viola tricolor; 80 g/ha): 100%; AMARE herbicidal activity in percent (Amaranthus retroflexus; 80 g/ha): 90%; LOLMU herbicidal activity in percent (Lolium multiflorum [6]; 80 g/ha): 100%; ECHCG herbicidal activity in percent (Echinochloa crus-galli [8]; 80 g/ha): 90%; ABUTH herbicidal activity in percent (Abutilon theophrasti; 320 g/ha): 80%; post-emergence efficacy LOLMU (Lolium multiflorum [9]; 80 g/ha): 80%; post-emergence efficacy LOLMU (Lolium multiflorum [9]; 320 g/ha): 100%; post-emergence efficacy ALOMY (Alopecurus myosuroides [10]): 100%; post-emergence efficacy ORYSA (Oryza sativa [11]; 80 g/ha): 10%; post-emergence efficacy ORYSA (Oryza sativa [11]; 320 g/ha): 20%; post-emergence efficacy TRZAS ([12]; 80 g/ha): 10%; post-emergence efficacy TRZAS ([12]; 320 g/ha): 10%; post-emergence efficacy ZEAMX (Zea mays [13]; 80 g/ha): 0%; post-emergence efficacy ZEAMX (Zea mays [13]; 320 g/ha): 0%
Cc1ccc2c(c1)[C@H](Nc1ncc3c(n1)COCC3=O)[C@@H](C)C2 [2.97] | 10 | 20 | 0 |  | 100 | 100 |  | 100 | 100 | 100 | 100 | 100 | 100 | 100 | 100 | 100 | 100 | 100 | 100 | oily; logp (HCOOH): 3.26; 1H-NMR (CDCl3, 400 MHZ, δ in ppm): ): 1.25 (t, 3H, | AVEFA herbicidal activity in percent (Avena fatua; 320 g/ha): 100%; SETVI herbicidal activity in percent (Setaria viridis [4]; 80 g/ha): 100%; VIOTR herbicidal activity in percent (Viola tricolor; 80 g/ha): 100%; AMARE herbicidal activity in percent (Amaranthus retroflexus; 80 g/ha): 100%; POLCO herbicidal activity in percent (Polygonum convolvulus; 80 g/ha): 100%; ECHCG herbicidal activity in percent (Echinochloa crus-galli [8]; 80 g/ha): 100%; post-emergence efficacy SETVI (Setaria viridis [14]): 80%; post-emergence efficacy PHBPU (Ipomoea purpurea [15]): 100%; post-emergence efficacy LOLMU (Lolium multiflorum [9]; 320 g/ha): 100%; post-emergence efficacy ALOMY (Alopecurus myosuroides [10]): 100%; post-emergence efficacy ECHCG (Echinochloa crus-galli [16]; 80 g/ha): 90%; post-emergence efficacy ECHCG (Echinochloa crus-galli [16]; 320 g/ha): 100%; post-emergence efficacy TRZAS ([12]; 80 g/ha): 0%; post-emergence efficacy TRZAS ([12]; 320 g/ha): 0%
O=C1CC(c2ccccc2F)Cc2nc(N[C@@H]3CCCc4ccccc43)ncc21 (some centres unmarked) [2.93] |  |  |  |  |  |  |  |  |  |  |  |  |  |  |  |  |  |  |  | oily; logp (HCOOH): 4.38; 1H-NMR (CDCl3, 400 MHZ, δ in ppm): 1.95 (m, 3H, 2H | ORYSA herbicidal activity in percent (Oryza sativa [17]; 1280 g/ha): 20%; TRZAS herbicidal activity in percent ([2]; 1280 g/ha): 0%; ZEAMX herbicidal activity in percent (Zea mays [3]; 1280 g/ha): 0%; VIOTR herbicidal activity in percent (Viola tricolor; 1280 g/ha): 80%; PHBPU herbicidal activity in percent (Ipomoea purpurea [5]; 1280 g/ha): 90%; AMARE herbicidal activity in percent (Amaranthus retroflexus; 1280 g/ha): 80%; STEME herbicidal activity in percent (Stellaria media; 1280 g/ha): 100%; CYPES herbicidal activity in percent (Cyperus esculentus; 1280 g/ha): 100%; VERPE herbicidal activity in percent (Veronica persica; 1280 g/ha): 100%
CC(=O)c1cnc(N[C@@H]2CCOc3ccccc32)nc1 [1.4] |  |  |  |  | 90 | 100 | 100 | 100 | 100 | 100 | 90 | 100 | 100 |  | 100 | 100 | 90 | 100 | 100 | oily; logp (HCOOH): 2.03; 1H-NMR (CDCL3, 400 MHZ, δ in ppm): 2.15 (m, 1H, 1H | AVEFA herbicidal activity in percent (Avena fatua; 80 g/ha): 100%; AVEFA herbicidal activity in percent (Avena fatua; 320 g/ha): 100%; VIOTR herbicidal activity in percent (Viola tricolor; 80 g/ha): 100%; AMARE herbicidal activity in percent (Amaranthus retroflexus; 80 g/ha): 100%; CYPES herbicidal activity in percent (Cyperus esculentus; 80 g/ha): 80%; CYPES herbicidal activity in percent (Cyperus esculentus; 320 g/ha): 100%; POLCO herbicidal activity in percent (Polygonum convolvulus; 80 g/ha): 100%
O=C1CCCc2nc(NC3CCc4ccccc43)ncc21 (racemic) [2.91] |  |  |  | 20 | 100 | 100 | 100 |  | 100 | 100 |  | 100 | 80 | 100 |  | 90 | 100 |  | 100 | oily; logp (HCOOH): 2.62; 1H-NMR (CDCl3, 400 MHZ, δ in ppm): 1.25 (m, 1H, 1H | ORYSA herbicidal activity in percent (Oryza sativa [17]; 320 g/ha): 20%; AVEFA herbicidal activity in percent (Avena fatua; 320 g/ha): 80%; ABUTH herbicidal activity in percent (Abutilon theophrasti; 320 g/ha): 100%; post-emergence efficacy SETVI (Setaria viridis [14]): 90%; post-emergence efficacy LOLMU (Lolium multiflorum [9]; 320 g/ha): 100%; post-emergence efficacy ECHCG (Echinochloa crus-galli [16]; 320 g/ha): 100%; post-emergence efficacy ORYSA (Oryza sativa [11]; 320 g/ha): 0%
